In US10150742B2, “Substituted heterocyclic compounds for treating or preventing viral infections” (President and Fellows of Harvard College, priority 2013, dated 2018):

What was measured:
DENV2 [1] = assay: Order-of-addition / post-infection treatment, single-cycle DENV2 yield in BHK21 cells by plaque-formation assay; format: cell-based; settings: for inhibition of DENV2 replication when added after infection: post-treatment of cells
Description: To examine the point(s) in the DENV infectious cycle affected by GNF-2, we performed order of addition experiments measuring the effect of GNF-2 when incubated with cells or virus prior to infection (PRE), when added at the time of infection (CO), or when added after the initial infection had been allowed to occur (POST). […] BHK21 cells were inoculated with DENV2 at a multiplicity of infection (MOI) of 1 and incubated for one-hour at 37° C. after which the inoculum was removed, the cells were washed, and fresh medium was added to limit infection to a single round. At twenty-four hours post-infection, corresponding to approximately one complete life cycle of DENV, the yield of infectious virions that had been released to the culture supernatant was quantified by plaque-formation assay (PFA) as a measure of successful DENV replication.

[2] = test system: dengue virus serotype 2, DENV2; assay: Reduction of DENV viral titer by kinase inhibitors and labelled GNF2 derivatives (cell-based); settings: for EC90: Dengue virus, DENV2, read-out: EC90 (dengue virus serotype 2, DENV2)
Description: In order to investigate the role of kinases on DENV entry, the order of addition of the cells, virus, and inhibitor was investigated. An inhibitor was either (i) contacted with a virus for 1 h at 37° C.; (ii) contacted with cells for 1 h at 37° C.; or (iii) contacted with a virus and cells for 1 h at 37° C. The cells were washed to remove virus and inhibitor. The washed cells were exposed to either DMSO or an inhibitor. Viral titer was measured at intervals post-infection by harvesting supernatants and measuring virus production by a plaque formation assay (PFA).

DENV2 [3] = assay: DENV2 infectivity assay, compound pre-incubated with virus inoculum, viral yield by plaque formation assay; settings: treatment of the virus
DENV = assay: Association of DENV with liposomes; format: biochemical
Abl kinases = assay: Abl kinase inhibition (IC50 kinase); format: biochemical

Row | SMILES | inhibition of DENV2 replication when added after infection (DENV2 [1]) | reduction of DENV viral titer [2] | EC90 [2] [nM] | lowering of DV titer when pre-incubated with the virus, compared to DMSO control (DENV2 [3]) [log] | IC90 (concentration causing a 10-fold decrease in single-cycle viral yield) (DENV2 [1]; added to cells post-infection, BHK21, MOI 1, 24 h) [μM] | association of DENV with liposomes (DENV) | IC50 (Abl kinases) [nM]
1 | Cc1ccc(NC(=O)c2ccc(CN3CCN(C)CC3)cc2)cc1Nc1nccc(-c2cccnc2)n1 [imatinib] | inhibited DENV2 replication | did not | 10000 | – | – | – | –
2 | NC(=O)c1cccc(-c2cc(Nc3ccc(OC(F)(F)F)cc3)ncn2)c1 [GNF-2] | inhibited DENV2 replication | over 1 log unit | ~1000 | ~1 | 8 | does not block association | 138 ± 5
